This is an account of results in ChEMBL document CHEMBL1201862, “PubChem BioAssay data set” (2004).

Some test systems named below: PC-3; K562; UACC-62; RXF 393; A498; SF-539; SK-MEL-5; HT-29; SR; SK-MEL-28; SK-MEL-2; RPMI-8226; COLO 205; HOP-92; MDA-MB-435; CCRF-CEM; SNB-19; IGROV-1; HCT-15; ACHN.
Common to all, as to test: NCI tumour cell line growth inhibition, 48 h

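48-hour exposure; five concentrations; linearly interpolated endpoints. GI50 is the concentration that inhibits growth by half.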 Calls of active or inactive are those of the source. No stated cut-off is given here; in the data, active = GI50 up to about 1.1 µM and inactive = higher. Bridge positions count the residues as written; N and C are the ends. Square brackets hold non-standard residues; d marks the D form. Peptide text beside a SMILES is read from it. I, II: the chains in the order shown. * marks the point of attachment. Quinoxaline2carbonyl = O=C(c1cnc2ccccc2n1)*; NMeV = CN[CH](C(=O)O)C(C)C; NMeC = CN[CH](CS)C(=O)O

On to `CC1NC(=O)C(NC(=O)c2cnc3ccccc3n2)COC(=O)C(C(C)C)N(C)C(=O)C2CSSCC(C(=O)N(C)C(C(C)C)C(=O)OCC(NC(=O)c3cnc4ccccc4n3)C(=O)NC(C)C(=O)N2C)N(C)C1=O` (stereo not given) (I: Quinoxaline2carbonyl-SA[NMeC][NMeV] / II: Quinoxaline2carbonyl-SA[NMeC][NMeV]; ester I:1-II:C, I:C-II:1; disulfide I:3-II:3; configuration not given here), for which the GI50 in the assay on PC-3, in the assay on K562, with UACC-62, in the assay on RXF 393, in the assay on A498 and with SF-539 was < 0.01 µM (active) in each case. For the same compound, the GI50 in the assay on SK-MEL-5 is 0.0316 µM (active); in the assay on HT-29, < 0.01 µM (active); in the assay with SR, 0.114 µM (active); in the assay with SK-MEL-28, < 0.01 µM (active); in the assay with SK-MEL-2, < 0.01 µM (active); with RPMI-8226 it was < 0.01 µM (active). Further, the GI50 in the assay with COLO 205, with HOP-92, in the assay on MDA-MB-435, in the assay with CCRF-CEM, in the assay on SNB-19 and in the assay with IGROV-1 was < 0.01 µM (active) in each case. The GI50 is below 0.01 µM in the assay on HCT-15 and < 0.01 µM (active) with ACHN.
Turning to `COc1ccc2c(NCCCCCCNc3c4ccccc4nc4cc(OC)ccc34)c3ccccc3nc2c1`, the GI50 is 0.0885 µM (active) in the assay on PC-3; 0.0334 µM (active) in the assay on K562; 0.263 µM (active) in the assay with UACC-62; 0.0834 µM (active) in the assay with RXF 393; 0.516 µM (active) in the assay with A498; 0.0929 µM (active) with SF-539. The GI50 in the assay on SK-MEL-5 is 1.01 µM (active); with HT-29, 0.029 µM (active); in the assay on SR, 0.0185 µM (active); in the assay with SK-MEL-28, 0.342 µM (active); in the assay on SK-MEL-2 it was 0.364 µM (active); in the assay with RPMI-8226 it was 0.0573 µM (active). Also, the GI50 in the assay with COLO 205 was 0.0753 µM (active); in the assay on HOP-92, 0.1 µM (active); in the assay on MDA-MB-435, 0.254 µM (active); in the assay with CCRF-CEM, 0.0447 µM (active); in the assay on SNB-19, 0.218 µM (active); with IGROV-1, 0.075 µM (active). The figures for the GI50 in the assay with HCT-15 and with ACHN were 1.29 µM and 0.163 µM (active), respectively.
In the case of `COC(=O)NC1=NNC(=O)c2ccccc2N1`, the GI50 with PC-3, in the assay on K562, in the assay with UACC-62, in the assay with RXF 393, in the assay on A498 and with SF-539 was > 100 µM (inactive) throughout. For the same compound, the GI50 in the assay with SK-MEL-5, with HT-29, in the assay with SR, in the assay with SK-MEL-28, in the assay on SK-MEL-2 and in the assay on RPMI-8226 was > 100 µM (inactive) throughout. The GI50 in the assay on COLO 205, in the assay with HOP-92, in the assay with MDA-MB-435, with CCRF-CEM, in the assay with SNB-19 and in the assay on IGROV-1 was > 100 µM (inactive) in each case. For the same compound, the GI50 in the assay on HCT-15 was above 100 µM; with ACHN, > 100 µM (inactive).
As to `C1COC(NC(C2CC2)C2CC2)=N1` [RILMENIDINE], the GI50 in the assay with PC-3, in the assay with K562, with UACC-62, with RXF 393, in the assay on A498 and in the assay with SF-539 was > 100 µM (inactive) in each case. Also, the GI50 with SK-MEL-5, in the assay on HT-29, in the assay with SR, in the assay with SK-MEL-28, in the assay on SK-MEL-2 and in the assay with RPMI-8226 was > 100 µM (inactive) each time. The GI50 with COLO 205, in the assay with HOP-92, with MDA-MB-435, in the assay on CCRF-CEM, in the assay with SNB-19 and in the assay on IGROV-1 was > 100 µM (inactive) in each case. Besides, the GI50 in the assay on HCT-15 is above 100 µM; in the assay on ACHN it was > 100 µM (inactive).
On to `CCCN(CCC)C(=S)N/N=C/c1cccc(C)n1`, for which the GI50 was 0.0773 µM (active) in the assay on PC-3; < 0.01 µM (active) with K562; 0.303 µM (active) in the assay with UACC-62; 0.151 µM (active) in the assay on RXF 393; 0.233 µM (active) with A498; 0.214 µM (active) with SF-539. The GI50 with SK-MEL-5 is 0.129 µM (active); with HT-29 it was < 0.01 µM (active); with SR, 0.0571 µM (active); in the assay with SK-MEL-28, 0.778 µM (active); in the assay on SK-MEL-2, 0.594 µM (active); in the assay on RPMI-8226 it was 0.0239 µM (active). The GI50 in the assay on COLO 205 was < 0.01 µM (active); in the assay on HOP-92, 0.391 µM (active); in the assay on MDA-MB-435 it was 0.521 µM (active); with CCRF-CEM, < 0.01 µM (active); in the assay on SNB-19 it was 0.533 µM (active); in the assay with IGROV-1, 0.0733 µM (active). Moreover, the figures for the GI50 with HCT-15 and in the assay on ACHN were 0.0438 µM and 0.177 µM (active), respectively.
As for `COC(=O)c1c(C)nc(C)c(NO)c1-c1ccccc1C(F)(F)F`, the GI50 was 70.5 µM (inactive) in the assay with PC-3; 28.3 µM (inactive) in the assay on K562; 64.9 µM (inactive) in the assay with UACC-62; 16.7 µM (inactive) in the assay on RXF 393; > 100 µM (inactive) with A498; 16 µM (inactive) in the assay with SF-539. Also, the GI50 with SK-MEL-5 is 41.7 µM (inactive); in the assay with HT-29, 18.4 µM (inactive); in the assay on SR it was 30.2 µM (inactive); with SK-MEL-28, 20.4 µM (inactive); with SK-MEL-2, 53.8 µM (inactive); with RPMI-8226, 15.1 µM (inactive). Also, the GI50 in the assay with COLO 205 is 27.1 µM (inactive); in the assay with HOP-92, 14.2 µM (inactive); with MDA-MB-435 it was 19.6 µM (inactive); in the assay with CCRF-CEM it was 29.2 µM (inactive); with SNB-19, > 100 µM (inactive); in the assay with IGROV-1, 18.8 µM (inactive). Further, the GI50 with HCT-15 was 16.1 µM; with ACHN, 30.8 µM (inactive).
With `COC(=O)c1cc(C#N)[nH]c1-c1cc(Br)cs1`, the GI50 in the assay with PC-3 is 12.2 µM (inactive); in the assay with K562, 20.3 µM (inactive); in the assay on UACC-62 it was 15.8 µM (inactive); in the assay with RXF 393 it was 5.32 µM (inactive); with A498, 4.97 µM (inactive); in the assay on SF-539 it was 14.3 µM (inactive). Moreover, the GI50 in the assay on SK-MEL-5 is 7.73 µM (inactive); in the assay on HT-29, 14.2 µM (inactive); with SR, 24.9 µM (inactive); in the assay with SK-MEL-28 it was 14.5 µM (inactive); with SK-MEL-2, 12.8 µM (inactive); in the assay on RPMI-8226, 7.55 µM (inactive). Further, the GI50 with COLO 205 was 14.3 µM (inactive); with HOP-92, 3.61 µM (inactive); in the assay with MDA-MB-435, 13.3 µM (inactive); in the assay with CCRF-CEM it was 13.8 µM (inactive); in the assay with SNB-19, 15 µM (inactive); in the assay on IGROV-1, 13.4 µM (inactive). Also, the figures for the GI50 in the assay with HCT-15 and in the assay with ACHN were 15.1 µM and 19.6 µM (inactive), respectively.
